Where two headings read alike, the source gives them in different places.
Assays:
HDAC8 = biological target: T1, HDAC8 (Homo sapiens, UniProt Q9BY41); experiment: Enzyme HDAC inhibition assay, HDAC8; conditions: read-out: IC50 HDAC 8; IC50 ± SEM; three experiments in duplicates
T1 sequence (Q9BY41 1-377): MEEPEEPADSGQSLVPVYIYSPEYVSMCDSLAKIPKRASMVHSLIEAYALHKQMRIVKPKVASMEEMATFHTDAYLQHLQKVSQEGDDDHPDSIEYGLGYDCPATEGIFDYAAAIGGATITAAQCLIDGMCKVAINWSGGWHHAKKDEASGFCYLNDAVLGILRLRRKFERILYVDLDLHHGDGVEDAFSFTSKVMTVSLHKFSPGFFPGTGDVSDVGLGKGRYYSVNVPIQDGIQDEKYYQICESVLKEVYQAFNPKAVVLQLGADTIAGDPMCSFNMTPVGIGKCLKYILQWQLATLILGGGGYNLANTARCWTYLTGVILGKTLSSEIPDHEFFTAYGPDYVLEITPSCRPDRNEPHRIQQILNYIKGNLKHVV
From the text: (§2) All human recombinant enzymes were purchased from Reaction Biology Corp. (Malvern, PA, USA).

HDAC2 [1] = conditions: obtained by fitting Lechner et al. source data to a sigmoidal concentration–effect model; ref [21]; read-out: IC50 HDAC 2, Lechner et al.; cited from earlier work
MCF-7 = experiment: MTT cell viability assay, MCF-7; assay type: cell-based, human
Procedure: (§1) MTT assays were performed as previously described. […] After incubation time, medium was replaced by MTT (solution of 5 mg/mL 3-(4,5-dimethylthiazol-2-yl)-2,5-diphenyl-tetrazoliumbromidin in phosphate buffered saline, Serva, Heidelberg, Germany).

HDAC6 [2] = biological target: T2, HDAC6 (Homo sapiens, UniProt Q9UBN7); experiment: Enzyme HDAC inhibition assay, HDAC6; conditions: read-out: IC50 HDAC 6; IC50 ± SEM; three experiments in duplicates
T2 sequence (Q9UBN7 1-1215): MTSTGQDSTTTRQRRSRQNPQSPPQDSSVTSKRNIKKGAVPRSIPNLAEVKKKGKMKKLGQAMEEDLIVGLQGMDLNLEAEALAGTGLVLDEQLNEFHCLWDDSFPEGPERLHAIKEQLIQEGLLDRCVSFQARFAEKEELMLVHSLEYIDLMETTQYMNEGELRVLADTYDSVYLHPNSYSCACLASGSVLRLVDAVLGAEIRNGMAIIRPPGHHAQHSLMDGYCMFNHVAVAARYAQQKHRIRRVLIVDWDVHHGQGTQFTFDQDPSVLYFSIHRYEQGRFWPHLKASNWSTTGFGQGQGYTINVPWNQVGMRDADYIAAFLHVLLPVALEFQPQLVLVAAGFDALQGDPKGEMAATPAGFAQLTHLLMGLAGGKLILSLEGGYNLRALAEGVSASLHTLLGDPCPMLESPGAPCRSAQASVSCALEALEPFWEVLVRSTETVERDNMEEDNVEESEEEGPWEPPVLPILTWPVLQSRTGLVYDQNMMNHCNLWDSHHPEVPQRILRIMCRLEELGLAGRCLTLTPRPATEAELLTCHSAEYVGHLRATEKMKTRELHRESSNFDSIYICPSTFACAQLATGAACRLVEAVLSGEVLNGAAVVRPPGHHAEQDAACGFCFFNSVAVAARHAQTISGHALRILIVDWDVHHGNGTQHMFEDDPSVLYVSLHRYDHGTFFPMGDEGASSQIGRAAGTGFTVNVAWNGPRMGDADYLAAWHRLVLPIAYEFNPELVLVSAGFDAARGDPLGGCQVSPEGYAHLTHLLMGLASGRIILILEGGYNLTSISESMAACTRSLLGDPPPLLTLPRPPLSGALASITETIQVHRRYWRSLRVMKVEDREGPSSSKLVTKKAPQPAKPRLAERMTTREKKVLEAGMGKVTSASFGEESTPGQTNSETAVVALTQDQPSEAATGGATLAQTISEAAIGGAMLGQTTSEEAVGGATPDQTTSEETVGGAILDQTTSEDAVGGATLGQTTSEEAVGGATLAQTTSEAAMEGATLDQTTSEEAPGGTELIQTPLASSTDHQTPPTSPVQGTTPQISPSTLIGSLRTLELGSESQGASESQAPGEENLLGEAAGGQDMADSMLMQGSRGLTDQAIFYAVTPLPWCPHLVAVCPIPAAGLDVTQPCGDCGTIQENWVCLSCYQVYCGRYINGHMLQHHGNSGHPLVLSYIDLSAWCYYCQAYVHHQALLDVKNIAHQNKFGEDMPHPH
From the text: as §2

[3] = tested on: class I/IIb HDAC activity in T47D cells; experiment: cells; assay type: cell-based, human; conditions: T47D cells, 48 h, substrate Boc-Lys-AC-AMC; IC50 ± SEM, one experiment in triplicates; read-out: IC50 Cellular HDAC Assay
Procedure: The cellular HDAC assay was performed based on an assay published by Heltweg and Jung and Ciossek et al.. Breast cancer cell line T-47D (12,000 c/w) was seeded in 96-well tissue culture plates (Corning, Kaiserslautern, Germany) in a total volume of 90 µL of culture medium. After 24 h, cells were incubated 48 h with increasing concentrations of a-lipoic acid. The reaction was started by adding 10 µL of 3 mM Boc-Lys(Ac)-AMC (Bachem, Bubensdorf, Switzerland) and again incubated for 3 h under cell culture conditions. […]

HDAC6 [4] = conditions: obtained by fitting Lechner et al. source data to a sigmoidal concentration–effect model; ref [21]; read-out: IC50 HDAC 6, Lechner et al.; cited from earlier work
T47D = experiment: MTT cell viability assay, T47D; assay type: cell-based, human
Procedure: as §1

HDAC4 = biological target: T3, HDAC4 (Homo sapiens, UniProt P56524); experiment: Enzyme HDAC inhibition assay, HDAC4; assay type: biochemical; conditions: IC50 ± SEM; three experiments in duplicates; read-out: IC50 HDAC 4
T3 construct: purchased Reaction Biology Corp. KDA-21-279
From the text: as §2

HDAC2 [5] = biological target: HDAC2 (Homo sapiens, UniProt Q92769); experiment: Enzyme HDAC inhibition assay, HDAC2; conditions: read-out: IC50 HDAC 2; IC50 ± SEM; three experiments in duplicates
From the text: as §2

[6] = 120 h, IC50 ± SEM, read-out: IC50 MCF-7, 120 h MTT assay
[7] = 120 h, IC50 ± SEM, read-out: IC50 T-47D, 120 h MTT assay

T3 sequence (P56524 whole entry): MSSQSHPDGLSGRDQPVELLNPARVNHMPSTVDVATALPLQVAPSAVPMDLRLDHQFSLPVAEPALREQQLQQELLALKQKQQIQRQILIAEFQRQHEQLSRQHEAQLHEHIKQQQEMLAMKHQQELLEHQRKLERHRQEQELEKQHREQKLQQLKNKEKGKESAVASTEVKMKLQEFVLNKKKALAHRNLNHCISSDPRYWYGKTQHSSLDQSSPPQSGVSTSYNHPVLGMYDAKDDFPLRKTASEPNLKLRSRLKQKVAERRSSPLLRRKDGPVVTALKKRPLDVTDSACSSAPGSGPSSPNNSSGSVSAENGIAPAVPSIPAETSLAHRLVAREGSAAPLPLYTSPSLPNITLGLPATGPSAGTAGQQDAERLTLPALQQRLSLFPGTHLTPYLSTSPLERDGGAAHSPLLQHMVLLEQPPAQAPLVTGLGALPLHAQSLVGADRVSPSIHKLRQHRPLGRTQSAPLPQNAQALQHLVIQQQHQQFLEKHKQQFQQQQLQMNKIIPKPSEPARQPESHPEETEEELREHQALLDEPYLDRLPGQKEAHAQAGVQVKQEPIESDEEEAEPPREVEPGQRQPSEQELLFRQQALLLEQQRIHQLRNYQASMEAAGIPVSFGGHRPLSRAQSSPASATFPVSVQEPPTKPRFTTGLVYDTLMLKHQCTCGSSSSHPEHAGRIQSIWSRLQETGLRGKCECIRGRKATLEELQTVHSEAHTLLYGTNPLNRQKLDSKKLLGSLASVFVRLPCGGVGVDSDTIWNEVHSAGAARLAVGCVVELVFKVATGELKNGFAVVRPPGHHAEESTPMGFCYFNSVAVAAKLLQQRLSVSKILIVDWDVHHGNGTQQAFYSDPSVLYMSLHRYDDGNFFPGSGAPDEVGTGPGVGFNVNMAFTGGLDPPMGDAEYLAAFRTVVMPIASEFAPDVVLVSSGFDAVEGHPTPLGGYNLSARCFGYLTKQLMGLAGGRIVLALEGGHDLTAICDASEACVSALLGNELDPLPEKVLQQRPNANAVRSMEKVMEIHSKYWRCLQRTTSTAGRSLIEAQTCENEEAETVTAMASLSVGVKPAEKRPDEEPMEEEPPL
HDAC2 (Homo sapiens, UniProt Q92769), sequence (Q92769 whole entry): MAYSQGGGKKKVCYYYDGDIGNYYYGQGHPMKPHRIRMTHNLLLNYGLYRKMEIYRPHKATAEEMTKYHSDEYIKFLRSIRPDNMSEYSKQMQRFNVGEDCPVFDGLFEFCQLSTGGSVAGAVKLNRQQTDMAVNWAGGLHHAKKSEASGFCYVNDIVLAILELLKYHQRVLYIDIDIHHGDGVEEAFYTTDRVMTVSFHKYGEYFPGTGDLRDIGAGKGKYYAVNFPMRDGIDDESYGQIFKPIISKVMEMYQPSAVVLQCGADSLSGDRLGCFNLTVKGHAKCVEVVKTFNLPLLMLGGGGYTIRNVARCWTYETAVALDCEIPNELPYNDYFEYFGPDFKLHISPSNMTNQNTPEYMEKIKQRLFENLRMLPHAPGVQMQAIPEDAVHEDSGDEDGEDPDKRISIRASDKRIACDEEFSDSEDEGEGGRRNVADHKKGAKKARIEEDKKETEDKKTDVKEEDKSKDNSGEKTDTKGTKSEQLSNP

Question: For `O=C(O)CCCC[C@H]1CCSS1` [(S)-α-lipoic acid], which IC50 (HDAC8) is on record?
Answer: Its IC50 is 559 ± 71 µM.

Question: And the IC50 (HDAC2 [1])?
Answer: Its IC50 is over 500 µM.

Question: What about the IC50 (MCF-7; [6]) of the same molecule?
Answer: The IC50 was 429 ± 26.8 µM.

Question: And the IC50 (HDAC6 [2])?
Answer: The IC50 was 21.3 ± 1.23 µM.

Question: What about the IC50 [3] of the same molecule?
Answer: Its IC50 is 906 ± 87.7 µM.

Question: And the IC50 (HDAC6 [4])?
Answer: Its IC50 is over 500 µM.

Question: What about the IC50 (T47D; [7]) of the same molecule?
Answer: The IC50 was 338 ± 17.4 µM.

Question: What about the IC50 (HDAC4) of the same molecule?
Answer: The IC50 was 324 ± 39.9 µM.

Question: And the IC50 (HDAC2 [5])?
Answer: The IC50 was 299 ± 34.6 µM.

Question: Which IC50 (HDAC8) does the source give for `O=C(O)CCCC[C@@H]1CCSS1` [(R)-α-lipoic acid] here?
Answer: Its IC50 is 151 ± 33.4 µM.

Question: And the IC50 (HDAC2 [1])?
Answer: The IC50 was about 500 µM.

Question: And the “inhibition of cell proliferation at 100 µM, MCF-7” value (MCF-7; 100 µM, 120 h MTT)?
Answer: The value was “did not inhibit cell proliferation”.

Question: And the “reduction of proliferation at 300 µM, MCF-7” value (MCF-7; 300 µM, 120 h MTT)?
Answer: Its value is “significantly reduced proliferation”.

Question: And the “decrease of cell viability, MCF-7” value (MCF-7; 1 mM, 72 h MTT)?
Answer: Its value is “approximately 35%”.

Question: And the IC50 (MCF-7; 72 h MTT, slightly above, read-out: IC50 MCF-7)?
Answer: The IC50 was about 1000 µM.

Question: And the IC50 (MCF-7; [6])?
Answer: Its IC50 is 439 ± 16.3 µM.

Question: And the “increase in potency by prolongation of incubation time, MCF-7” value (MCF-7; 120 h versus 72 h MTT)?
Answer: The value was 2.7 fold.

Question: What about the IC50 (MCF-7; read-out: IC50 MCF-7, 72 h MTT assay, 72 h, IC50 ± SEM) of the same molecule?
Answer: The IC50 was 1170 ± 28.9 µM.

Question: And the IC50 (HDAC6 [2])?
Answer: The IC50 was 14.2 ± 2.62 µM.

Question: What about the IC50 [3] of the same molecule?
Answer: The IC50 was 969 ± 120 µM.

Question: What about the IC50 (HDAC6 [4]) of the same molecule?
Answer: Its IC50 is 210 µM.

Question: And the “reduction of proliferation at 100 µM, T47D” value (T47D; 100 µM, 120 h MTT)?
Answer: The value was 12%.

Question: What about the “reduction of proliferation at 300 µM, T47D” value (T47D; 300 µM, 120 h MTT, more pronounced effect in T47D) of the same molecule?
Answer: Its value is “significantly reduced proliferation”.

Question: What about the “decrease of cell viability, T47D” value (T47D; 1 mM, 72 h MTT) of the same molecule?
Answer: The value was “approximately 35%”.

Question: What about the IC50 (T47D; 72 h MTT, slightly above, read-out: IC50 T47D) of the same molecule?
Answer: The IC50 was about 1000 µM.

Question: And the IC50 (T47D; [7])?
Answer: Its IC50 is 435 ± 28.6 µM.

Question: And the “increase in potency by prolongation of incubation time, T47D” value (T47D; 120 h versus 72 h MTT)?
Answer: The value was 2.6 fold.

Question: What about the IC50 (T47D; read-out: IC50 T-47D, 72 h MTT assay, 72 h, IC50 ± SEM) of the same molecule?
Answer: The IC50 was 1120 ± 67.8 µM.

Question: What about the IC50 (HDAC4) of the same molecule?
Answer: Its IC50 is 168 ± 19.3 µM.

Question: And the IC50 (HDAC2 [5])?
Answer: The IC50 was 208 ± 34.9 µM.
